Article PMC8943153, “Inhibition of lung microbiota-derived proapoptotic peptides ameliorates acute exacerbation of pulmonary fibrosis” (Nature Communications, 2022)
Where two headings read alike, the source gives them in different places. No end group written: not given here.

Tests used:
[1] = test system: putative serine protease in Staphylococcus nepalensis culture supernatant; type: biochemical
[2] = Half-life of corisin in vitro in a cell culture system; type: in vitro ADME, human; set-up: Corisin concentration in cell culture medium: unit not given here; details: enzyme immunoassay; for Corisin concentration in cell culture medium: A549 culture, 10 µg/ml added
Description: We assessed the half-life of corisin in a cell culture system to determine the elimination rate of corisin from a solution in a cell culture system. A549 alveolar epithelial cells were cultured up to confluence in DMEM supplemented with 10% heat-inactivated FBS. The cells were then washed and cultured in FBS (−) DMEM. Corisin was then inoculated into the cell culture medium at a final concentration of 10 µg/ml, and the cell supernatant was sampled after 0, 1, 3, 6, 12, and 24 h. The concentration of corisin was measured by enzyme immunoassay, and the half-life of corisin was determined.

[3] = 0.1, 0.3, 1 mM, 0.5, 1 and 2 h at 37 °C, silver staining

CC(C)C[C@H](NC(=O)[C@H]1O[C@@H]1C(=O)O)C(=O)NCCCCN=C(N)N [E-64]
Inhibition ([1]; 0h, 3uM): 0 | Inhibition ([1]; 0h, 10uM): 0 | Inhibition ([1]; 0h, 30uM): 0 | Effect on transglycosylase degradation by S. nepalensis culture supernatant [1, 3]: neither E-64 nor EDTA suppressed | Inhibition ([1]; 0.5h, 3uM): 0 | Inhibition ([1]; 0.5h, 10uM): 0 | Inhibition ([1]; 0.5h, 30uM): 0 | Inhibition ([1]; 1h, 3uM): 0 | Inhibition ([1]; 1h, 10uM): 0 | Inhibition ([1]; 1h, 30uM): 0.2 | Inhibition ([1]; 2h, 3uM): 0 | Inhibition ([1]; 2h, 10uM): 0 | Inhibition ([1]; 2h, 30uM): 0.03

O=C(O)CN(CCN(CC(=O)O)CC(=O)O)CC(=O)O [EDTA, ethylenediaminetetraacetic acid]
Effect on transglycosylase degradation by S. nepalensis culture supernatant [1]: neither E-64 nor EDTA suppressed

Cl.NCCc1ccc(S(=O)(=O)F)cc1 [pefabloc SC]
Effect on transglycosylase degradation by S. nepalensis culture supernatant [1, 3]: suppress transglycosylase degradation

Cl.NCCc1ccc(S(=O)(=O)F)cc1 [pefabloc]
Inhibition ([1]; 0h, 0.1mM): 0 | Inhibition ([1]; 0h, 0.3mM): 0 | Inhibition ([1]; 0h, 1mM): 0 | Inhibition ([1]; 0.5h, 0.1mM): 53.32 | Inhibition ([1]; 0.5h, 0.3mM): 87.64 | Inhibition ([1]; 0.5h, 1mM): 98.7 | Inhibition ([1]; 1h, 0.1mM): 56.04 | Inhibition ([1]; 1h, 0.3mM): 90.52 | Inhibition ([1]; 1h, 1mM): 98.55 | Inhibition ([1]; 2h, 0.1mM): 52.92 | Inhibition ([1]; 2h, 0.3mM): 90.94 | Inhibition ([1]; 2h, 1mM): 99.04

IVMPESSGNPNAVNPAGYR [corisin]
Half-life in solution in a human alveolar cell culture system ([2]; 10 µg/ml in FBS(-) DMEM on A549 cells): < 60 min | Corisin concentration in cell culture medium ([2]; time 1 h): 3931.8 | Corisin concentration in cell culture medium ([2]; time 3 h): 2007.7 | Corisin concentration in cell culture medium ([2]; time 6 h): 1433.4 | Corisin concentration in cell culture medium ([2]; time 12 h): 1485.2 | Corisin concentration in cell culture medium ([2]; time 24 h): 1357.9 | half-life at 10 µg/ml ([2]; human, 10 µg/ml in FBS(-) DMEM on confluent A549 cells, sampled 0-24 h, exponential decay model, n = 4 per time point, read-out: Half-life in A549 epithelial cell culture medium (converted)): 42 min
